How the values were obtained:
Tubulin (Homo sapiens) [1] = biological target: T1, Tubulin (Homo sapiens) (UniProt P68371+Q9H4B7+P0DPH7+P68366+Q13509+Q71U36+P04350+Q3ZCM7+P07437+P68363+Q9BQE3+Q6PEY2+Q13885+Q9BVA1+Q9BUF5); assay: Effect on tubulin polymerization by tubulin assembly assay relative to paclitaxel; type: protein-complex assay
MCF7 = assay: Antiproliferative activity against MCF7 breast cancer cell line relative to paclitaxel; type: functional, Homo sapiens
Tubulin (Homo sapiens) [2] = biological target: T1, Tubulin (Homo sapiens); assay: Antiproliferative activity against NCI/ADR-RES […] cancer cell line relative to paclitaxel; type: functional, cell-based

| SMILES | Ratio ED50 (Tubulin (Homo sapiens) [1]) | Ratio ED50 (MCF7) | Ratio ED50 (Tubulin (Homo sapiens) [2]) |
| --- | --- | --- | --- |
| CC(=O)O[C@@]12CO[C@@H]1C[C@H](O)[C@@]1(C)C(=O)CC3=C(C)[C@@H](OC(=O)[C@H](O)[C@@H](NC(=O)c4ccccc4)c4ccccc4)C[C@@](O)([C@@H](OC(=O)c4ccccc4)[C@H]21)C3(C)C | 2.2 | 0.87 | 0.79 |
| CC(=O)O[C@@]12CO[C@@H]1CC[C@@]1(C)C(=O)CC3=C(C)[C@@H](OC(=O)[C@H](O)[C@@H](NC(=O)c4ccccc4)c4ccccc4)C[C@@](O)([C@@H](OC(=O)c4ccccc4)[C@H]21)C3(C)C | 2 | 9 | 0.21 |
| CC(=O)O[C@H]1C(=O)[C@]2(C)CC[C@H]3OC[C@@]3(OC(C)=O)[C@H]2[C@H](OC(=O)c2ccccc2)[C@]2(O)C[C@H](OC(=O)[C@H](O)[C@@H](NC(=O)c3ccccc3)c3ccccc3)C(C)=C1C2(C)C | 1.4 | 30 | 1 |
